Experimental data as given in patent US20240109864A1, “SUBSTITUTED PYRAZOLYL PIPERIDINE CARBOXYLIC ACIDS” (BAYER AKTIENGESELLSCHAFT, priority 2020, published 2024).
Structures can show the parent of a compound that is named as a salt.

Target: T1, recombinant guanylate cyclase reporter cell line (Rattus norvegicus, UniProt P20595)
T1 construct: expressed in transfected cells
T1 sequence (P20595 1-619): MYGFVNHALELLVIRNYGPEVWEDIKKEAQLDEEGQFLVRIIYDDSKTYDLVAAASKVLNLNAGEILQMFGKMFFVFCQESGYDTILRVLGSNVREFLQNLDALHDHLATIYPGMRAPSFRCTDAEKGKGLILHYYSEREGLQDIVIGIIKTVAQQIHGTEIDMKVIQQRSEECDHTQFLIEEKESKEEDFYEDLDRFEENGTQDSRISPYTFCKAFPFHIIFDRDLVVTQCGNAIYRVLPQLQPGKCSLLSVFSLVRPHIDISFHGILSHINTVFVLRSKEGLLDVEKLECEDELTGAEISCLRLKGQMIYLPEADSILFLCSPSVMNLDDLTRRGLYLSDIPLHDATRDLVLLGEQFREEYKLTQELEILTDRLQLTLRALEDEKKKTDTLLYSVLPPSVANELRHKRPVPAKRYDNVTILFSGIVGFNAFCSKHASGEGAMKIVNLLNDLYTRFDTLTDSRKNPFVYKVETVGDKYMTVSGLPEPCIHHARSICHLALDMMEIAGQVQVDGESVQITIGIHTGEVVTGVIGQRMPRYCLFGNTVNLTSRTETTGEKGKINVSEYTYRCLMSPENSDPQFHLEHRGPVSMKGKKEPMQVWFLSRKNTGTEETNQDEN
T1 sequence (P19686 1-690 partner): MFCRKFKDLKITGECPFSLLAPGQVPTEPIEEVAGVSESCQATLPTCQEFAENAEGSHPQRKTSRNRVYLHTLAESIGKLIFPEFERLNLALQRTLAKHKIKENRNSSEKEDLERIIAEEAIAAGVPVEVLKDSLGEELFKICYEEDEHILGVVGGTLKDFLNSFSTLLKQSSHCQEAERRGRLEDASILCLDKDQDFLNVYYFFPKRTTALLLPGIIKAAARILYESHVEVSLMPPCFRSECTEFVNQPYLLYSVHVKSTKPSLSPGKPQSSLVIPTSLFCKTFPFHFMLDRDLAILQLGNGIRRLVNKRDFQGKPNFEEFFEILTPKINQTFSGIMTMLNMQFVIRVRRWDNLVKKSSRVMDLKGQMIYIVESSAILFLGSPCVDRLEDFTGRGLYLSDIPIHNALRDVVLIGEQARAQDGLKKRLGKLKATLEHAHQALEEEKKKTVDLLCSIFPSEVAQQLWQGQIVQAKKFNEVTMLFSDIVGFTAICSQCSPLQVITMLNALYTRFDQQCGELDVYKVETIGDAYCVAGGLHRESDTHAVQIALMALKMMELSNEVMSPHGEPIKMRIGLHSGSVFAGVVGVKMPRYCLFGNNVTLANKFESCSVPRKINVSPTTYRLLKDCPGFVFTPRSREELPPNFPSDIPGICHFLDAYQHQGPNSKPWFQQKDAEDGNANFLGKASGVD
Test: Effect on a recombinant guanylate cyclase reporter cell line
Format: cell-based
Conditions: in some cases mean values from individual determinations; for MEC: MEC = minimum effective concentration; for EC50: half maximal effective concentration
Method: The cellular activity of the compounds according to the invention was determined using a recombinant guanylate cyclase reporter cell line, as described in F. Wunder et al., Anal. Biochem. 339, 104-112 (2005).

| Structure (SMILES) | MEC [nM] | EC50 [nM] |
| --- | --- | --- |
| CCCOC(=O)N1CCN(c2ccc(-c3ccc(Cl)cc3N3CCCC(n4ncc(C(=O)O)c4C(F)(F)F)C3)cc2)CC1 (single isomer, unassigned) [Example 58, 1-[1-[5-Chloro-2-[4-(4-propoxycarbonylpiperazin-1-yl)phenyl]phenyl]-3-piperidyl]-5-(trifluoromethyl)pyrazole-4-carboxylic acid] | 10.0 | 42.5 |
| CC(C)COC(=O)N1CCN(c2ccc(-c3ccc(Cl)cc3N3CCCC(n4ncc(C(=O)O)c4C(F)(F)F)C3)cc2)CC1 (single isomer, unassigned) [Example 59, 1-[1-[5-Chloro-2-[4-(4-isobutoxycarbonylpiperazin-1-yl)phenyl]phenyl]-3-piperidyl]-5-(trifluoromethyl)pyrazole-4-carboxylic acid] | 10.0 | 40.5 |
| O=C(O)c1cnn(C2CCCN(c3cc(Cl)ccc3-c3ccc(N4CCN(C(=O)OCC5CCC5)CC4)cc3)C2)c1C(F)(F)F (single isomer, unassigned) [Example 61, 1-[1-[5-Chloro-2-[4-[4-(cyclobutylmethoxycarbonyl)piperazin-1-yl]phenyl]phenyl]-3-piperidyl]-5-(trifluoromethyl)pyrazole-4-carboxylic acid] | 3.0 | 21 |
| COCCCOC(=O)N1CCN(c2ccc(-c3ccc(Cl)cc3N3CCCC(n4ncc(C(=O)O)c4C(F)(F)F)C3)cc2)CC1 (single isomer, unassigned) [Example 63, 1-[1-[5-Chloro-2-[4-[4-(3-methoxypropoxycarbonyl)piperazin-1-yl]phenyl]phenyl]-3-piperidyl]-5-(trifluoromethyl)pyrazole-4-carboxylic acid] | 10.0 | 27 |
| O=C(O)c1cnn(C2CCCN(c3cc(Cl)ccc3-c3ccc(N4CCN(C(=O)OCCOC(F)(F)F)CC4)cc3)C2)c1C(F)(F)F (single isomer, unassigned) [Example 64, 1-[1-[5-Chloro-2-[4-[4-[2-(trifluoromethoxy)ethoxycarbonyl]piperazin-1-yl]phenyl]phenyl]-3-piperidyl]-5-(trifluoromethyl)pyrazole-4-carboxylic acid] | 30.0 | 84 |
| CNC(=O)N1CCN(c2ccc(-c3ccc(Cl)cc3N3CCCC(n4ncc(C(=O)O)c4C(F)(F)F)C3)cc2)CC1 (single isomer, unassigned) [Example 65, 1-[1-[5-Chloro-2-[4-[4-(methylcarbamoyl)piperazin-1-yl]phenyl]phenyl]-3-piperidyl]-5-(trifluoromethyl)pyrazole-4-carboxylic acid] | 10.0 | 56.5 |
| CCNC(=O)N1CCN(c2ccc(-c3ccc(Cl)cc3N3CCCC(n4ncc(C(=O)O)c4C(F)(F)F)C3)cc2)CC1 (single isomer, unassigned) [Example 66, 1-[1-[5-Chloro-2-[4-[4-(ethylcarbamoyl)piperazin-1-yl]phenyl]phenyl]-3-piperidyl]-5-(trifluoromethyl)pyrazole-4-carboxylic acid] | 3.0 | 28.5 |
| CCN1CCN(c2ccc(-c3ccc(Cl)cc3N3CCCC(n4ncc(C(=O)O)c4C(F)(F)F)C3)c(F)c2)CC1 (single isomer, unassigned) [Example 68, 1-[1-[5-Chloro-2-[4-(4-ethylpiperazin-1-yl)-2-fluoro-phenyl]phenyl]-3-piperidyl]-5-(trifluoromethyl)pyrazole-4-carboxylic acid hydrochloride] | 3.0 | 36.5 |
| O=C(O)c1cnn(C2CCCN(c3cc(Cl)ccc3-c3ccc(N4CCN(CC5CC5)CC4)cc3F)C2)c1C(F)(F)F (single isomer, unassigned) [Example 69, 1-[1-[5-Chloro-2-[4-[4-(cyclopropylmethyl)piperazin-1-yl]-2-fluoro-phenyl]phenyl]-3-piperidyl]-5-(trifluoromethyl)pyrazole-4-carboxylic acid hydrochloride] | 3.0 | 13.8 |
| CCN1CCN(c2ccc(-c3ccc(Cl)cc3N3CCCC(n4ncc(C(=O)O)c4C(F)(F)F)C3)cc2F)CC1 (single isomer, unassigned) [Example 70, 1-[1-[5-Chloro-2-[4-(4-ethylpiperazin-1-yl)-3-fluoro-phenyl]phenyl]-3-piperidyl]-5-(trifluoromethyl)pyrazole-4-carboxylic acid] | 30.0 | 99 |

Further molecules by falling EC50, results first:

| MEC [nM] | EC50 [nM] | Structure (SMILES) |
| --- | --- | --- |
| 10.0 | 69.5 | O=C(O)c1cnn(C2CCCN(c3cc(Cl)ccc3-c3ccc(N4CCN(CC5CC5)CC4)c(F)c3)C2)c1C(F)(F)F (single isomer, unassigned) [Example 71, 1-[1-[5-Chloro-2-[4-[4-(cyclopropylmethyl)piperazin-1-yl]-3-fluoro-phenyl]phenyl]-3-piperidyl]-5-(trifluoromethyl)pyrazole-4-carboxylic acid hydrochloride] |
| 10.0 | 64.5 | CN1CCN(c2ccc(-c3ccc(Cl)cc3N3CCCC(n4ncc(C(=O)O)c4C(F)(F)F)C3)c(Cl)c2)CC1 (single isomer, unassigned) [Example 72, 1-[1-[5-Chloro-2-[2-chloro-4-(4-methylpiperazin-1-yl)phenyl]phenyl]-3-piperidyl]-5-(trifluoromethyl)pyrazole-4-carboxylic acid formic acid adduct] |
| 10.0 | 57.5 | COCCOC(=O)N1CCN(c2ccc(-c3ccc(Cl)cc3N3CCCC(n4ncc(C(=O)O)c4C(F)(F)F)C3)cc2)CC1 (single isomer, unassigned) [Example 62, 1-[1-[5-Chloro-2-[4-[4-(2-methoxyethoxycarbonyl)piperazin-1-yl]phenyl]phenyl]-3-piperidyl]-5-(trifluoromethyl)pyrazole-4-carboxylic acid] |
| 10.0 | 47.5 | O=C(O)c1cnn(C2CCCN(c3cc(Cl)ccc3-c3ccc(N4CCN(C(=O)OCC5CC5)CC4)cc3)C2)c1C(F)(F)F (single isomer, unassigned) [Example 60, 1-[1-[5-Chloro-2-[4-[4-(cyclopropylmethoxycarbonyl)piperazin-1-yl]phenyl]phenyl]-3-piperidyl]-5-(trifluoromethyl)pyrazole-4-carboxylic acid] |
| 30.0 | 45 | CS(=O)(=O)N1CCN(c2ccc(-c3ccc(Cl)cc3N3CCCC(n4ncc(C(=O)O)c4C(F)(F)F)C3)cc2)CC1 (single isomer, unassigned) [Example 67, 1-[1-[5-Chloro-2-[4-(4-methylsulfonylpiperazin-1-yl)phenyl]phenyl]-3-piperidyl]-5-(trifluoromethyl)pyrazole-4-carboxylic acid hydrochloride] |
| 1.0 | 6.3 | O=C(O)c1cnn(C2CCCN(c3cc(Cl)ccc3-c3ccc(N4CCN(C(=O)OC5CC5)CC4)cc3)C2)c1C(F)(F)F (single isomer, unassigned) [Example 57, 1-[1-[5-Chloro-2-[4-[4-(cyclopropoxycarbonyl)piperazin-1-yl]phenyl]phenyl]-3-piperidyl]-5-(trifluoromethyl)pyrazole-4-carboxylic acid] |
